The values below come from patent US20150274719A1, “AMINO-SUBSTITUTED IMIDAZO[1,2-A]PYRIDINECARBOXAMIDES AND THEIR USE” (BAYER PHARMA AKTIENGESELLSCHAFT, priority 2012, published 2015).

Data set [1] in a line: Determination of pharmacokinetic parameters following intravenous and oral administration (rats). The class given is in vivo, male Wistar rats. Particulars: intravenous administration in rats. The protocol: B-6. Determination of Pharmacokinetic Parameters Following Intravenous and Oral Administration
The pharmacokinetic parameters of the compounds according to the invention are determined in male CD-1 mice, male Wistar rats and female beagles. Intravenous administration in the case of mice and rats is carried out by means of a species-specific plasma/DMSO formulation, and in the case of dogs by means of a water/PEG400/ethanol formulation. In all species, oral administration of the dissolved substance is performed via gavage, based on a water/PEG400/ethanol formulation. The taking of blood from rats is simplified by inserting a silicone catheter into the right Vena jugularis externa prior to substance administration. The operation is carried out at least one day prior to the experiment with […] and administration of an analgesic (atropin/Rimadyl (3/1) 0.1 ml s.c.). The blood is taken (generally more than 10 time points) within a time window including terminal time points of at least 24 to a maximum of 72 hours after substance administration. When the blood is taken, it is passed into heparinised tubes. Then the blood plasma is obtained by centrifugation and is optionally stored at −20° C. until further processing.
An internal standard (which may also be a chemically unrelated substance) is added to the samples of the compounds according to the invention, calibration samples and qualifiers, and there follows protein precipitation by means of excess acetone. Addition of a buffer solution matched to the LC conditions, and subsequent vortexing, is followed by centrifugation at 1000 g. The supernatant is analysed by LC-MS/MS using C18 reversed-phase columns and variable mobile phase mixtures. The substances are quantified via the peak heights or areas from extracted ion chromatograms of specific selected ion monitoring experiments.
The plasma concentration/time plots determined are used to calculate the pharmacokinetic parameters such as AUC, Cmax, t1/2 (terminal half life), F (bioavailability), MRT (mean residence time) and CL (clearance), using a validated pharmacokinetic calculation program.
Since the substance quantification is carried out in plasma, it is necessary to determine the blood/plasma distribution of the substance in order to be able to adjust the pharmacokinetic parameters correspondingly. For this purpose, a defined amount of substance is incubated in heparinized whole blood of the species in question in a rocking roller mixture for 20 min. After centrifugation at 1000 g, the plasma concentration is measured (by means of LC-MS/MS; see above) and determined by calculating the ratio of the Cblood/Cplasma value.

In data set [2] the target is T1, recombinant guanylate cyclase reporter cell line (Rattus norvegicus, UniProt P19686+P20595).
T1 construct: expressed in transfected cells; host or cells: recombinant reporter cell line
T1 sequence (P19686 1-690): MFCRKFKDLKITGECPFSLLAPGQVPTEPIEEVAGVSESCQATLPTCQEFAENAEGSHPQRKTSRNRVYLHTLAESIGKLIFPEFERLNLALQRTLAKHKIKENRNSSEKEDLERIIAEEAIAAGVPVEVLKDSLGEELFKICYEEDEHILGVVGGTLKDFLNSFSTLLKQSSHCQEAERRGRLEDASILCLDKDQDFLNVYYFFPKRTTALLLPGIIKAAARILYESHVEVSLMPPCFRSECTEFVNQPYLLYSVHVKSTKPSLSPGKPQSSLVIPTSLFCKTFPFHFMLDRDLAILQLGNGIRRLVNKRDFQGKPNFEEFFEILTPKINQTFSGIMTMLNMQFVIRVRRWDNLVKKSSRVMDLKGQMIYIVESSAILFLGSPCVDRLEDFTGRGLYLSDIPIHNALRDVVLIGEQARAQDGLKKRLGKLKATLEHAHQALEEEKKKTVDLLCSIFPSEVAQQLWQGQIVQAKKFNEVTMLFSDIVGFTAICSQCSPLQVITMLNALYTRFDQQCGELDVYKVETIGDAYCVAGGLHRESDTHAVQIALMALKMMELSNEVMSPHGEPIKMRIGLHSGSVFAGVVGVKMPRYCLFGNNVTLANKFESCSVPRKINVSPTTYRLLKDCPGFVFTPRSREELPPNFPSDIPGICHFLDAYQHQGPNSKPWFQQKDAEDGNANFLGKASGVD
T1 sequence (P20595 1-619): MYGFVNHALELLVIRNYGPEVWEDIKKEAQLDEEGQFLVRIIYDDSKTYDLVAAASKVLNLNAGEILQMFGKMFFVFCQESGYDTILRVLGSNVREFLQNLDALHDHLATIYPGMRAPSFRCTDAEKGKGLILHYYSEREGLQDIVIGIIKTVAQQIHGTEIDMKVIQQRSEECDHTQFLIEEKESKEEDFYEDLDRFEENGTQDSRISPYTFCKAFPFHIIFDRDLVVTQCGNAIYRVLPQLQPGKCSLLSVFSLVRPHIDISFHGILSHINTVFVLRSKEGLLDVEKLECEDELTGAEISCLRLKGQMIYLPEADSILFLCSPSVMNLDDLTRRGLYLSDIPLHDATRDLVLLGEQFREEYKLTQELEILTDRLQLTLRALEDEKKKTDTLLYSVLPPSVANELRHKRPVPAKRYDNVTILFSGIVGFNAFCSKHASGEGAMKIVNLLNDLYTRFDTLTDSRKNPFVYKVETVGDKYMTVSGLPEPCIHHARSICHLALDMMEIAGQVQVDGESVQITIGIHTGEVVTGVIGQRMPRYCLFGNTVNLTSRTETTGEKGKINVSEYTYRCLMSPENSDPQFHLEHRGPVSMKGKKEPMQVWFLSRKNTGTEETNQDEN
In words: Action on recombinant guanylate cyclase reporter cell line. The class given is cell-based. Particulars: in some cases mean values from individual determinations. Put shortly: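 Whole-cell reporter assay with recombinant guanylate cyclase; endpoint = minimal effective concentration.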

Setting [3] is: male, Wistar, rat, plasma, iv, read-out: MRT.

Where a name gives a salt, the structure may show the parent alone. Read-outs that look alike come from different tables or passages of the source.

`CCCC(C)(N)CNC(=O)c1c(C)nc2c(OCc3c(F)cccc3F)cc(C3CC3)cn12` (single isomer, unassigned; enantiomer b) [Example 281, ent-N-(2-amino-2-methylpentyl)-6-cyclopropyl-8-[(2,6-difluorobenzyl)oxy]-2-methylimidazo[1,2-a]pyridine-3-carboxamide (Enantiomer B)]: in data set [1], the AUCnorm worked out at 0.28 kg·h/L and the CLblood is 39 mL/min/kg. Besides, the half-life in data set [1] (male, Wistar, rat, plasma, iv) was 5.5 h. Moreover, in data set [1] (setting [3]), the MRT worked out at 6.9 h. Also, the “MEC (minimal effective concentration)” value in data set [2] is 0.3 µM.
In data set [1], `Cc1cc(OCc2c(F)cccc2F)c2nc(C)c(C(=O)NCC(C)(N)CF)n2c1` (single isomer, unassigned; enantiomer b) [Example 284, ent-N-(2-amino-3-fluoro-2-methylpropyl)-8-[(2,6-difluorobenzyl)oxy]-2,6-dimethylimidazo[1,2-a]pyridine-3-carboxamide (Enantiomer B)] yielded an AUCnorm of 1.20 kg·h/L, a CLblood of 16.2 mL/min/kg, a mean residence time MRT of 5.3 h and a t1/2 of 4.6 h. In addition, in data set [2], the “MEC (minimal effective concentration)” value was 0.1 µM.
In data set [1], `Cc1cc(OCc2c(F)ccc(F)c2F)c2nc(C)c(C(=O)NCC(C)(N)CF)n2c1` (single isomer, unassigned; enantiomer b) [Example 286, ent-N-(2-amino-3-fluoro-2-methylpropyl)-2,6-dimethyl-8-[(2,3,6-trifluorobenzyl)oxy]imidazo[1,2-a]pyridine-3-carboxamide (Enantiomer B)] gave an AUCnorm of 0.82 kg·h/L, a CLblood of 23.2 mL/min/kg, a mean residence time (MRT) of 4.5 h and a t1/2 of 3.8 h. Moreover, the “MEC (minimal effective concentration)” value in data set [2] is 0.1 µM.
In data set [1], `CCCC(C)(N)CNC(=O)c1c(C)nc2c(OCc3c(F)cccc3F)cc(C(F)F)cn12` (single isomer, unassigned; enantiomer b) [Example 289, ent-N-(2-amino-2-methylpentyl)-8-[(2,6-difluorobenzyl)oxy]-6-(difluoromethyl)-2-methyl-imidazo[1,2-a]pyridine-3-carboxamide Formate (Enantiomer B)] showed an AUCnorm of 0.38 kg·h/L and a CLblood of 41.8 mL/min/kg. For the same molecule, the half-life in data set [1] (male, Wistar, rat, plasma, iv) is 4.4 h. For the same molecule, the MRT in data set [1] (setting [3]) was determined as 6.8 h. In data set [2], the “MEC (minimal effective concentration)” value is 0.3 µM.
On to `Cc1nc2c(OCc3c(F)cccc3F)cc(C(F)F)cn2c1C(=O)NCC(C)(N)CF` (single isomer, unassigned; enantiomer b) [Example 292, ent-N-(2-amino-3-fluoro-2-methylpropyl)-8-[(2,6-difluorobenzyl)oxy]-6-(difluoromethyl)-2-methylimidazo[1,2-a]pyridine-3-carboxamide (Enantiomer B)], for which, in data set [1], the AUCnorm was determined as 0.56 kg·h/L, the CLblood worked out at 36.2 mL/min/kg, the MRT is reported as 4.1 h and the t1/2 stood at 3.2 h. Also, the “MEC (minimal effective concentration)” value in data set [2] worked out at 0.03 µM.
In data set [1], `Cc1nc2c(OCc3c(F)cccc3F)cc(Cl)cn2c1C(=O)NCC(C)(C)N` [Example 73, N-(2-Amino-2-methylpropyl)-6-chloro-8-[(2,6-difluorobenzyl)oxy]-2-methylimidazo[1,2-a]-pyridine-3-carboxamide] yielded an AUCnorm of 1.55 kg·h/L and a CLblood of 8.5 mL/min/kg. This molecule showed a half-life in data set [1] (male, Wistar, rat, plasma, iv) of 8.6 h. For the same molecule, the MRT in data set [1] (setting [3]) was 11.8 h. Besides, the “MEC (minimal effective concentration)” value in data set [2] was 0.30 µM.
In data set [1], `Cc1nc2c(OCc3c(F)cccc3F)cc(Cl)cn2c1C(=O)NCC1(N)CCC1` [Example 155, N-[(1-aminocyclobutyl)methyl]-6-chloro-8-[(2,6-difluorobenzyl)oxy]-2-methylimidazo[1,2-a]-pyridine-3-carboxamide trifluoroacetate] had an AUCnorm of 0.97 kg·h/L and a CLblood of 21.2 mL/min/kg. This molecule showed a half-life in data set [1] (male, Wistar, rat, plasma, iv) of 7.7 h. The MRT in data set [1] (setting [3]) came out at 11.2 h. Besides, the “MEC (minimal effective concentration)” value in data set [2] was found to be 0.30 µM.
In data set [1], `Cc1cc(OCc2c(F)cccc2F)c2nc(C)c(C(=O)NC[C@H]3CCCCN3)n2c1` [Example 173, 8-[(2,6-Difluorobenzyl)oxy]-2,6-dimethyl-N-[(2R)-piperidin-2-ylmethyl]imidazo[1,2-a]pyridine-3-carboxamide] returned an AUCnorm of 0.54 kg·h/L and a CLblood of 28 mL/min/kg. The molecule further had a half-life in data set [1] (male, Wistar, rat, plasma, iv) of 3.3 h. Besides, the MRT in data set [1] (setting [3]) was 3.9 h. The “MEC (minimal effective concentration)” value in data set [2] was 0.30 µM.
As for `Cc1cc(OCc2c(F)ccc(F)c2F)c2nc(C)c(C(=O)NCC(C)(C)N)n2c1` [Example 276, N-(2-Amino-2-methylpropyl)-2,6-dimethyl-8-[(2,3,6-trifluorobenzyl)oxy]imidazo[1,2-a]pyridine-3-carboxamide], in data set [1], the AUCnorm was 0.70 kg·h/L and the CLblood turned out to be 21.2 mL/min/kg. The same molecule showed a half-life in data set [1] (male, Wistar, rat, plasma, iv) of 2.9 h. Besides, the MRT in data set [1] (setting [3]) came out at 4.5 h. Further, the “MEC (minimal effective concentration)” value in data set [2] stood at 0.10 µM.
Consider `Cc1cc(OCc2c(F)cccc2F)c2nc(C)c(C(=O)NCC3(N)CCCCC3)n2c1` [Example 307, N-[(1-aminocyclohexyl)methyl]-8-[(2,6-difluorobenzyl)oxy]-2,6-dimethylimidazo[1,2-a]pyridine-3-carboxamide], for which, in data set [1], the AUCnorm came to 0.35 kg·h/L and the CLblood came out at 29.7 mL/min/kg. This molecule had a half-life in data set [1] (male, Wistar, rat, plasma, iv) of 6.9 h. The mean residence time MRT in data set [1] (setting [3]) turned out to be 9.8 h. Also, the “MEC (minimal effective concentration)” value in data set [2] is 0.65 µM.
For `C#Cc1cc(OCc2c(F)cccc2F)c2nc(C)c(C(=O)NCC(C)(N)CCC)n2c1` (stereo not drawn) [Example 356, ent-N-(2-amino-2-methylpentyl)-8-[(2,6-difluorobenzyl)oxy]-6-ethynyl-2-methylimidazo[1,2-a]pyridine-3-carboxamide] the same measures were 0.61 kg·h/L, 16.3 mL/min/kg, 10.3 h, 13.9 h and 0.10 µM.
